Test results taken from USRE50528E1, “Compounds and compositions for modulating EGFR mutant kinase activities” (Yuhan Corporation, priority 2014, dated 2025).

How the values were obtained:
EGFR mutant T790M = molecular target: T1, EGFR mutant T790M (Homo sapiens, UniProt P00533, T790M); assay: Kinase inhibition assay, EGFR mutant T790M; details: biochemical potency;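 also: truncated human EGFR mutant enzyme preincubated two hours with compound, then ATP plus ULight-PolyGT peptide for one hour, Europium-labeled antibody LANCE detection, IC50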
T1 construct: truncated human JAK3, EGFR mutants such as del E746-A750; purchased Carna Biosciences

[1] = molecular target: T2, EGFR mutant Del19 (E746-A750) (Homo sapiens, UniProt P00533, DEL746-750); assay: Kinase inhibition assay, EGFR del E746-A750; format: biochemical; details: read-out: EGFR mutants Del19 (E746-A750);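 also: truncated human EGFR mutant kinase, two-hour preincubation with compound, then one-hour reaction with ATP and ULight-PolyGT peptide, LANCE Europium-antibody phosphorylation readout, IC50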
T2 construct: truncated human JAK3, EGFR mutants such as del E746-A750; purchased Carna Biosciences

EGFR mutant L858R = molecular target: T3, EGFR mutant L858R (Homo sapiens, UniProt P00533, L858R); assay: Kinase inhibition assay, EGFR L858R; format: biochemical; details: read-out: EGFR mutants L858R;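 also: truncated human EGFR L858R kinase with compound preincubation, ULight-PolyGT peptide phosphorylation read by Europium-antibody Lance detection, IC50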
T3 construct: truncated human JAK3, EGFR mutants such as del E746-A750; purchased Carna Biosciences

EGFR mutant L858R/T790M = molecular target: T4, EGFR mutant L858R/T790M (Homo sapiens, UniProt P00533, L858R/T790M); assay: Kinase inhibition assay, EGFR L858R/T790M; format: biochemical; details: read-out: EGFR mutants L858R/T790M;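 also: truncated human enzyme preincubated two hours with compound, then one hour with one millimolar ATP and ULight-PolyGT peptide, Europium-labeled antibody detection, IC50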
T4 construct: truncated human JAK3, EGFR mutants such as del E746-A750; purchased Carna Biosciences

EGFR mutant Del19/T790M = molecular target: T5, EGFR mutant Del19/T790M (Homo sapiens, UniProt P00533, DEL746-750/T790M); assay: Kinase inhibition assay, EGFR del E746-A750/T790M; format: biochemical; details: read-out: EGFR mutants Del19/T790M
T5 construct: truncated human JAK3, EGFR mutants such as del E746-A750; purchased Carna Biosciences

SYK = molecular target: T6, SYK (Homo sapiens, UniProt P43405); assay: Kinase inhibition assay, SYK; format: biochemical; details: biochemical potency;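 also: purified full-length human SYK pre-incubated 30 min with compound, then ULight-TK peptide phosphorylation for 1 h, detected with Europium-labeled antibody in Lance buffer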
T6 construct: Purified human, full-length SYK, KDR; purchased Carna Biosciences

T4 sequence (P00533 669-1210 T790M/L858R limits assumed): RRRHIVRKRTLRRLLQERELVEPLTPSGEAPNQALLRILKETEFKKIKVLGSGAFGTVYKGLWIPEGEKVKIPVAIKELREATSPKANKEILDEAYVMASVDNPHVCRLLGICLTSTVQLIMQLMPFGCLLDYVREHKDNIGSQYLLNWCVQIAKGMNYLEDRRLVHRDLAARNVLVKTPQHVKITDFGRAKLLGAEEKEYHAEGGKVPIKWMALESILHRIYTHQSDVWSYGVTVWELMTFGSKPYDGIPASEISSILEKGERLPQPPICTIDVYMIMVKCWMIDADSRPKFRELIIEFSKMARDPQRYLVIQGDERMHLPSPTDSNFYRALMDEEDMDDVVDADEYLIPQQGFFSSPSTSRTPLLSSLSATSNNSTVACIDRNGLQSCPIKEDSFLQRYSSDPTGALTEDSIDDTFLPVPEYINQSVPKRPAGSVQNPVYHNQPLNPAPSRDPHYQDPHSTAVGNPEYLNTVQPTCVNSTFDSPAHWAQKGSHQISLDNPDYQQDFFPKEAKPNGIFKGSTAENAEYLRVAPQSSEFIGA
T5 sequence (P00533 with tags, fused parts or gaps DEL746-750/T790M limits assumed): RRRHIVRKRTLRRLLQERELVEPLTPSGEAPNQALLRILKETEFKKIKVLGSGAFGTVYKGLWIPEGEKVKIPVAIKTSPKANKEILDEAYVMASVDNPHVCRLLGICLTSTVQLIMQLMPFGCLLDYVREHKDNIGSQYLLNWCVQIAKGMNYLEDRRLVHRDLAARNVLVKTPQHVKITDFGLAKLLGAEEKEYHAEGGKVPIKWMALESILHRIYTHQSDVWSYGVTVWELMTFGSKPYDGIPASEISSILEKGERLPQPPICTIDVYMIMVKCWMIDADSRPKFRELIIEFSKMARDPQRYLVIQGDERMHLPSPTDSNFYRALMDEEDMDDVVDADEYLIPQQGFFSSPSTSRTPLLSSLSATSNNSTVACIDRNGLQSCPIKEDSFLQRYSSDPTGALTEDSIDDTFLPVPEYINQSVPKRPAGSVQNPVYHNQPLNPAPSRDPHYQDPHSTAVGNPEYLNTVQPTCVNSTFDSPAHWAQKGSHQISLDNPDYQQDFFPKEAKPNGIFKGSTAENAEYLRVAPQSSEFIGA
T3 sequence (P00533 669-1210 L858R limits assumed): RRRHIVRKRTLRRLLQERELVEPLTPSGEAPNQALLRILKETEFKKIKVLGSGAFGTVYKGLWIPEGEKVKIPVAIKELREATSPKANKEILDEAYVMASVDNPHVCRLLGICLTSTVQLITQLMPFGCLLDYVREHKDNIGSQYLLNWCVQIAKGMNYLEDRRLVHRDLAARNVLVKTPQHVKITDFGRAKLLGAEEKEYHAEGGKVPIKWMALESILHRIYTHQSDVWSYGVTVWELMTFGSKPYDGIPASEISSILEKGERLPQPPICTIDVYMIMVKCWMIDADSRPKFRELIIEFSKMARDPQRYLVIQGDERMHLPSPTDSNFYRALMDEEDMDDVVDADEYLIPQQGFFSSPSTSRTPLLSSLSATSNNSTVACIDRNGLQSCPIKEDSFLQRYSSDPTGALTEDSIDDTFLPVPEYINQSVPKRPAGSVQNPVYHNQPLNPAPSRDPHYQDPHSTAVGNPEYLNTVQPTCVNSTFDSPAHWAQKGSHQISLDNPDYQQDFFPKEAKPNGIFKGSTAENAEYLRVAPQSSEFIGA
T2 sequence (P00533 with tags, fused parts or gaps DEL746-750 limits assumed): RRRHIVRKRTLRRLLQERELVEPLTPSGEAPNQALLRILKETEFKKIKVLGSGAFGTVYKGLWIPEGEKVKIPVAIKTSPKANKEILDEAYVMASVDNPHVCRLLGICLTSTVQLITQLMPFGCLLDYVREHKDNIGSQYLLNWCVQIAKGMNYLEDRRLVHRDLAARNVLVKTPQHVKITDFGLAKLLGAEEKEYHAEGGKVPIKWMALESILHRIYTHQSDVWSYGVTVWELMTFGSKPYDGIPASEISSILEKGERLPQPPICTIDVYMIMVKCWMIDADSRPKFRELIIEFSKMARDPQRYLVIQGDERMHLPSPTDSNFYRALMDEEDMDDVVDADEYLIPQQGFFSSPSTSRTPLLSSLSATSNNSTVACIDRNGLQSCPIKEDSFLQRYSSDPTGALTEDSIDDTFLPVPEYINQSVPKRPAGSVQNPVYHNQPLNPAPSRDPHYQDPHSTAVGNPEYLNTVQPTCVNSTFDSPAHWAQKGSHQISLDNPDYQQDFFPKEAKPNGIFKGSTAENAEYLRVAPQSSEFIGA
T1 sequence (P00533 669-1210 T790M limits assumed): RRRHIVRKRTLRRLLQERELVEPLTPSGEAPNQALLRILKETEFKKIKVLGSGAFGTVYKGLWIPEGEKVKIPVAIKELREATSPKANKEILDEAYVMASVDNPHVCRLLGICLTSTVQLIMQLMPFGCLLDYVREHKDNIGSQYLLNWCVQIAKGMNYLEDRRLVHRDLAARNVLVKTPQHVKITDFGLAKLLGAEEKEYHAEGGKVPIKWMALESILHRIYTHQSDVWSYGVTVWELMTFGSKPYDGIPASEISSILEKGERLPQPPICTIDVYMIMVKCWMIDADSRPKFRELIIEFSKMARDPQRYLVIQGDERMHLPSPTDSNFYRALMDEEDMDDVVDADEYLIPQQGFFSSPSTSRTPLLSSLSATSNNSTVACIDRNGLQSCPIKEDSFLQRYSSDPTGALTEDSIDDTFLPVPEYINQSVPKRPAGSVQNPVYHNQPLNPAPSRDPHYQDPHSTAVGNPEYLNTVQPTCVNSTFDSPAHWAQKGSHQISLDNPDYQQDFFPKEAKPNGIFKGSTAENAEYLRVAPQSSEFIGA

Row | Structure (SMILES) | IC50 (EGFR mutant T790M) | IC50 [1] | IC50 (EGFR mutant L858R) | IC50 (EGFR mutant L858R/T790M) | IC50 (EGFR mutant Del19/T790M) | IC50 (SYK)
1 | C=CC(=O)Nc1cc(Nc2nccc(-n3cc(CN4C[C@H](O)[C@H](OC)C4)c(C)n3)n2)c(OC)cc1N1CCOCC1 [Compound 45, N-(5-(4-(4-(((3S,4R)-3-hydroxy-4-methoxypyrrolidin-1-yl)methyl)-3-methyl-1H-pyrazol-1-yl)pyrimidin-2-ylamino)-4-methoxy-2-morpholinophenyl)acrylamide] | 0.02 to 0.2 µM | < 0.02 µM | 0.02 to 0.2 µM | < 0.02 µM | < 0.02 µM | > 1 µM
2 | C=CC(=O)Nc1cc(Nc2ncc(Cl)c(-n3cc(CN4C[C@H](O)[C@H](OC)C4)c(C)n3)n2)c(OC)cc1N1CCOCC1 [Compound 51, N-(5-(5-chloro-4-(4-(((3S,4R)-3-hydroxy-4-methoxypyrrolidin-1-yl)methyl)-3-methyl-1H-pyrazol-1-yl)pyrimidin-2-ylamino)-4-methoxy-2-morpholinophenyl)acrylamide] | < 0.02 µM | 0.02 to 0.2 µM | 0.02 to 0.2 µM | < 0.02 µM | < 0.02 µM | > 1 µM
3 | C=CC(=O)Nc1cc(Nc2ncc(Cl)c(-n3cc(CN(C)C)c(C)n3)n2)c(OC)cc1N1CCOCC1 [Compound 52, N-(5-(5-chloro-4-(4-((dimethylamino)methyl)-3-methyl-1H-pyrazol-1-yl)pyrimidin-2-ylamino)-4-methoxy-2-morpholinophenyl)acrylamide] | < 0.02 µM | < 0.02 µM | < 0.02 µM | < 0.02 µM | < 0.02 µM | 0.201 to 1 µM
4 | C=CC(=O)Nc1cc(Nc2nccc(-n3cc(CN4C[C@H](O)[C@H](OC)C4)c(C4CC4)n3)n2)c(OC)cc1N1CCOCC1 [Compound 56, N-(5-(4-(3-cyclopropyl-4-(((3S,4R)-3-hydroxy-4-methoxypyrrolidin-1-yl)methyl)-1H-pyrazol-1-yl)pyrimidin-2-ylamino)-4-methoxy-2-morpholinophenyl)acrylamide] | < 0.02 µM | < 0.02 µM | < 0.02 µM | < 0.02 µM | < 0.02 µM | > 1 µM
5 | C=CC(=O)Nc1cc(Nc2nccc(-n3cc(CN4CCC4)c(C)n3)n2)c(OC)cc1C1=CCN(C)CC1 [Compound 59, N-(5-(4-(4-(azetidin-1-ylmethyl)-3-methyl-1H-pyrazol-1-yl)pyrimidin-2-ylamino)-4-methoxy-2-(1-methyl-1,2,3,6-tetrahydropyridin-4-yl)phenyl)acrylamide] | < 0.02 µM | < 0.02 µM | < 0.02 µM | < 0.02 µM | < 0.02 µM | > 1 µM
6 | C=CC(=O)Nc1cc(Nc2ncc(F)c(-n3cc(C)c(CN4CCC4)c3)n2)c(OC)cc1N1CCOCC1 [Compound 60, N-(5-(4-(3-(azetidin-1-ylmethyl)-4-methyl-1H-pyrrol-1-yl)-5-fluoropyrimidin-2-ylamino)-4-methoxy-2-morpholinophenyl)acrylamide] | 0.02 to 0.2 µM | < 0.02 µM | 0.02 to 0.2 µM | < 0.02 µM | < 0.02 µM | > 1 µM
7 | C=CC(=O)Nc1cc(Nc2ncc(C)c(-n3cc(CN4CCC4)cn3)n2)c(OC)cc1C1=CCN(C)CC1 [Compound 64, N-(5-(4-(4-(azetidin-1-ylmethyl)-1H-pyrazol-1-yl)-5-methylpyrimidin-2-ylamino)-4-methoxy-2-(1-methyl-1,2,3,6-tetrahydropyridin-4-yl)phenyl)acrylamide] | < 0.02 µM | < 0.02 µM | 0.02 to 0.2 µM | < 0.02 µM | < 0.02 µM | > 1 µM
8 | C=CC(=O)Nc1cc(Nc2ncc(C)c(-n3cc(CN4CCC4)c(C(C)(C)C)n3)n2)c(OC)cc1N1CCOCC1 [Compound 67, N-(5-(4-(4-(azetidin-1-ylmethyl)-3-tert-butyl-1H-pyrazol-1-yl)-5-methylpyrimidin-2-ylamino)-4-methoxy-2-morpholinophenyl)acrylamide] | 0.02 to 0.2 µM | < 0.02 µM | < 0.02 µM | < 0.02 µM | < 0.02 µM | > 1 µM
9 | C=CC(=O)Nc1cc(Nc2ncc(Cl)c(-n3cc(CN(C)C)cn3)n2)c(OC)cc1N1CCOCC1 [Compound 77, N-(5-(5-chloro-4-(4-((dimethylamino)methyl)-1H-pyrazol-1-yl)pyrimidin-2-ylamino)-4-methoxy-2-morpholinophenyl)acrylamide] | < 0.02 µM | < 0.02 µM | < 0.02 µM | < 0.02 µM | < 0.02 µM | 0.201 to 1 µM
10 | C=CC(=O)Nc1cc(Nc2nccc(-n3cc(CN(C)C)c(-c4ccc(C)cc4)n3)n2)c(OC)cc1N1CCOCC1 [Compound 80, N-(5-(4-(4-((dimethylamino)methyl)-3-p-tolyl-1H-pyrazol-1-yl)pyrimidin-2-ylamino)-4-methoxy-2-morpholinophenyl)acrylamide] | < 0.02 µM | < 0.02 µM | < 0.02 µM | < 0.02 µM | < 0.02 µM | > 1 µM
11 | C=CC(=O)Nc1cc(Nc2nccc(-n3cc(CN4CCC4)c(-c4ccc(F)cc4)n3)n2)c(OC)cc1N1CCOCC1 [Compound 81, N-(5-(4-(4-(azetidin-1-ylmethyl)-3-(4-fluorophenyl)-1H-pyrazol-1-yl)pyrimidin-2-ylamino)-4-methoxy-2-morpholinophenyl)acrylamide] | 0.201 to 1 µM | 0.02 to 0.2 µM | 0.02 to 0.2 µM | 0.02 to 0.2 µM | 0.02 to 0.2 µM | > 1 µM

Further lines, results first:

Row | IC50 (EGFR mutant T790M) | IC50 [1] | IC50 (EGFR mutant L858R) | IC50 (EGFR mutant L858R/T790M) | IC50 (EGFR mutant Del19/T790M) | IC50 (SYK) | Structure (SMILES)
12 | < 0.02 µM | < 0.02 µM | < 0.02 µM | < 0.02 µM | < 0.02 µM | > 1 µM | C=CC(=O)Nc1cc(Nc2nccc(-n3cc(CN(C)C)c(-c4ccccc4)n3)n2)c(OC)cc1N(C)C [Compound 83, N-(2-(dimethylamino)-5-(4-(4-((dimethylamino)methyl)-3-phenyl-1H-pyrazol-1-yl)pyrimidin-2-ylamino)-4-methoxyphenyl)acrylamide]
13 | < 0.02 µM | < 0.02 µM | < 0.02 µM | < 0.02 µM | < 0.02 µM | > 1 µM | C=CC(=O)Nc1cc(Nc2nccc(-n3cc(CN4CCC4)c(-c4ccccc4)n3)n2)c(OC)cc1N1CCC1 [Compound 87, N-(2-(azetidin-1-yl)-5-(4-(4-(azetidin-1-ylmethyl)-3-phenyl-1H-pyrazol-1-yl)pyrimidin-2-ylamino)-4-methoxyphenyl)acrylamide]
14 | < 0.02 µM | < 0.02 µM | < 0.02 µM | < 0.02 µM | < 0.02 µM | 0.201 to 1 µM | C=CC(=O)Nc1cc(Nc2nccc(-n3cc(CN(C)C)c(-c4cccs4)n3)n2)c(OC)cc1N1CCOCC1 [Compound 88, N-(5-(4-(4-((dimethylamino)methyl)-3-(thiophen-2-yl)-1H-pyrazol-1-yl)pyrimidin-2-ylamino)-4-methoxy-2-morpholinophenyl)acrylamide]
15 | < 0.02 µM | < 0.02 µM | < 0.02 µM | < 0.02 µM | < 0.02 µM | > 1 µM | C=CC(=O)Nc1cc(Nc2nccc(-n3cc(CN(C)C)c(-c4ccccc4)n3)n2)c(OC)cc1N(C)CCOC [Compound 94]
16 | < 0.02 µM | < 0.02 µM | < 0.02 µM | < 0.02 µM | < 0.02 µM | > 1 µM | C=CC(=O)Nc1cc(Nc2nccc(-n3cc(CN4CCC4)c(-c4ccccc4)n3)n2)c(OC)cc1N(C)CCOC [Compound 95, N-(5-(4-(4-(azetidin-1-ylmethyl)-3-phenyl-1H-pyrazol-1-yl)pyrimidin-2-ylamino)-4-methoxy-2-((2-methoxyethyl)(methyl)amino)phenyl)acrylamide]
17 | 0.02 to 0.2 µM | < 0.02 µM | < 0.02 µM | < 0.02 µM | < 0.02 µM | > 1 µM | C=CC(=O)Nc1cc(Nc2nccc(-n3cc(CN(C)C)c(-c4ccccc4)n3)n2)c(OC)cc1N(C)C1COC1 [Compound 96, N-(5-(4-(4-((dimethylamino)methyl)-3-phenyl-1H-pyrazol-1-yl)pyrimidin-2-ylamino)-4-methoxy-2-(methyl(oxetan-3-yl)amino)phenyl)acrylamide]
18 | 0.02 to 0.2 µM | 0.02 to 0.2 µM | < 0.02 µM | < 0.02 µM | < 0.02 µM | > 1 µM | C=CC(=O)Nc1cc(Nc2nccc(-n3cc(CN4CCC4)c(-c4ccccc4)n3)n2)c(OC)cc1N(C)C1COC1 [Compound 97, N-(5-(4-(4-(azetidin-1-ylmethyl)-3-phenyl-1H-pyrazol-1-yl)pyrimidin-2-ylamino)-4-methoxy-2-(methyl(oxetan-3-yl)amino)phenyl)acrylamide]
19 | < 0.02 µM | < 0.02 µM | < 0.02 µM | < 0.02 µM | < 0.02 µM | 0.02 to 0.2 µM | C=CC(=O)Nc1cc(Nc2nccc(-n3cc(CN4CCC4)c(C4CC4)n3)n2)c(OC)cc1N(C)CCOC [Compound 107, N-(5-(4-(4-(azetidin-1-ylmethyl)-3-cyclopropyl-1H-pyrazol-1-yl)pyrimidin-2-ylamino)-4-methoxy-2-((2-methoxyethyl)(methyl)amino)phenyl)acrylamide]
20 | < 0.02 µM | < 0.02 µM | < 0.02 µM | < 0.02 µM | < 0.02 µM | 0.02 to 0.2 µM | C=CC(=O)Nc1cc(Nc2nccc(-n3cc(CN(C)C)c(C4CC4)n3)n2)c(OC)cc1N(C)C1COC1 [Compound 108, N-(5-(4-(3-cyclopropyl-4-((dimethylamino)methyl)-1H-pyrazol-1-yl)pyrimidin-2-ylamino)-4-methoxy-2-(methyl(oxetan-3-yl)amino)phenyl)acrylamide]
